“Also recorded” adds a separate entry of the source.
Columns and labels:
[1] = test system: one carbon pool products (AMP, ADP, ATP); assay: One carbon pool products (AMP, ADP, ATP) in lymphocytes during DHEA-mediated EGSS (FIG. 5); details: DHEA 10 mg/kg daily per os 90 days ± reconstitution regimen
BH4 = test system: BH4; set-up: species or system dogs; details: dog, in vivo
IPA = IPA / isopentenylated tRNA quantitation in buffy coat lymphocytes of DHEA-treated neutered dogs (FIG. 3); format: in vivo
Protocol: (§1) FIG. 3. […] BH4 was assayed by the method of Niederwieser, A. et. al. (J Chromatogr. 1984 May 4; 290:237-46). For IPA quantitation, preliminary in vitro studies were performed in which DHEA-treated and control HT-29SF cells were exposed to [^3H]-mevalonic acid (saponified; data not shown). Total RNA was then isolated using the guanidinium thiocyanate method, hydrolyzed to free bases and isolated on an Aminex A9 column, with UV detection, as previously described (Nyce, J et. al., Proc Natl Acad Sci USA. 1993 Apr. 1; 90(7):2960-4). Increased incorporation of [^3H]-mevalonic acid into isopentenyladenosine peaks was interpreted as reduced pools of free unlabeled IPA into which the [^3H]-IPA equilibrated with high specific activity. (See Shultz and Nyce, Cancer Research 51(24):6563-7, 1992). This was borne out in in vivo experiments in neutered dogs treated with DHEA in which buffy coat lymphocytes were extracted and IPA quantitated with UV detection using the same HPLC procedure. […] Ubiquinone concentrations were quantitated from buffy coat samples by HPLC via the method of Abe, K. et. al., (J Nutr Sci Vitaminol (Tokyo). 1978; 24(6):555-67). For ease of presentation, pretreatment values for all 3 determinations (BH4, IPA and ubiquinone) were given a value of 1, with treatment values presented as their respective fraction thereof. […]

ubiquinone = assay: Ubiquinone concentrations in buffy coat samples of DHEA-treated neutered dogs (FIG. 3); format: in vivo
Protocol: as §1

serotonin = assay: Serotonin in intestinal mucosa biopsies of DHEA-treated neutered dogs (FIG. 7); format: in vivo; details: DHEA 10 mg/kg daily for 90 days ± supplementation
Protocol: The procedure of D'Souza, L and Glueck, H (Thromb Haemost. 1977 Dec. 15; 38(4):990-1001) was used to quantitate serotonin in intestinal biopsies obtained from neutered male and female dogs. Ten mg of intestinal mucosa was analyzed for each animal. […] Results are presented as percentage of values in pretreatment dogs, mean±SEM. MNSer, serotonin levels as quantitated in neutered male dogs; FNSer, serotonin levels as quantitated in female neutered dogs.

norepinephrine = assay: Urinary free norepinephrine in neutered dogs undergoing DHEA-mediated EGSS (FIG. 9); format: in vivo; details: 24 hour urine, DHEA 10 mg/kg 90 days ± reconstitution regimen
Protocol: FIG. 9. […] Urinary free norepinephrine was quantitated by the method of Mell, L D and Gustafson, A B (Clin Chem 23(3): 473-6, 1977), using a Waters HPLC system with a C18 reverse phase column and UV detector. 24 hour urine was collected from neutered male and female animals in amber glass containment vessels. To 100 ml of urine was added 1 ml of concentrated HCL as preservative. […] This treatment continued for 90 days, at which time further urine specimens were collected and assayed for norepinephrine. The data are reported as the mean±SEM. MNNor, norepinephrine levels as quantitated in neutered male dogs; FNNor, norepinephrine levels as quantitated in neutered female dogs.

NO = assay: Nitric oxide depletion and replenishment during DHEA-mediated EGSS; format: in vivo; details: animals undergoing DHEA-mediated EGSS
phenylalanine = assay: Plasma phenylalanine in DHEA-treated neutered dogs (FIG. 10); details: DHEA-treated neutered dogs ± reconstitution protocol
Protocol: Before treatment, 10-15 ml blood samples were taken from male and female neutered dogs, and plasma was collected by low speed centrifugation by the standard method. The method of Neckers, L M et. al. (Clin Chem 27(1):146-8, 1981) was used to quantitate plasma phenylalanine concentrations, with fluorometric detection (280 nm excitation, 330 nm emission), and a 10 ul injection volume.

estrogen = assay: Fecal estrogen in neutered female dogs before and after DHEA-mediated EGSS (FIG. 2); details: feces, DHEA 10 mg/kg p.o.
Protocol: Analyses were made in serum isolated from 4 intact male and 4 neutered male dogs of mixed breed, and in 3 intact female and 4 neutered female dogs of mixed breed. All were between 12 months and 24 months of age, and between 10 and 25 kg. […] For female dogs, estrogen was measured in anestrous for intact dogs. For both intact and neutered female dogs, the feces were collected over a period of 30 days, and thereafter the estrogens were extracted and quantitated using the procedure of Hofmann and Mostl (J Reprod Fertil Suppl 57:67-70, 2001). Results are reported as mean±SEM.
Comparison of testosterone and estrogen in neutered male and female dogs, respectively, before and after DHEA-mediated EGSS. The same neutered dogs from FIG. 1 were utilized. The same methodology was utilized as in FIG. 1. Dogs were exposed to escalating doses of DHEA until normal or near normal levels of testosterone or estradiol were achieved. […] Results are reported as the mean±SEM.

[2] = test system: neutered mixed breed dogs; assay: Physical symptoms / side effects of DHEA-mediated EGSS with and without reconstitution protocol (Table 1)
Excerpt: Physical symptoms associated with DHEA-mediated EGSS-induced Nitric Oxide (NO) depletion.

statin-treated cells = details: cited from earlier work
[3] = animals undergoing DHEA-mediated EGSS

Q: For `Nc1nc(=O)c2c([nH]1)NCC(CNc1ccc(C(=O)N[C@@H](CCC(=O)O)C(=O)O)cc1)N2C=O` (mixture of isomers) [folinic acid], which “one carbon pool products (purines, pyrimidines, S-adenosylmethionine; AMP, ADP, ATP)” value [1] is on record?
A: The value was “reconstitution”.

Q: With `C[C@]12CC[C@H](O)CC1=CC[C@@H]1[C@@H]2CC[C@]2(C)C(=O)CC[C@@H]12` [DHEA, Dehydroepiandrosterone] as the molecule, how does the BH4 level (BH4) read?
A: The BH4 level was “depleted”.

Q: What about the IPA level (IPA; exogenous DHEA in amounts sufficient to induce EGSS) of the same molecule?
A: The IPA level was “becomes depleted”.

Q: And the “total pools of isopentenylated tRNA” value (IPA; neutered dogs treated with DHEA, buffy coat lymphocytes, HPLC UV)?
A: The value was “found to be depleted”.

Q: What about the “ubiquinone levels, continuous treatment” value (ubiquinone; continuous DHEA at doses capable of inducing EGSS, with or without supplementation) of the same molecule?
A: The value was “decline”.

Q: What about the “ubiquinone levels, short term” value (ubiquinone; short term DHEA exposure) of the same molecule?
A: Its value is “increased”.

Q: What about the serotonin level (serotonin) of the same molecule?
A: The serotonin level was “Depletion”.

Q: What about the urinary norepinephrine (norepinephrine) of the same molecule?
A: The urinary norepinephrine was “Depletion”.

Q: And the NO level (NO)?
A: The NO level was “depleted”.

Q: What about the plasma phenylalanine levels (phenylalanine) of the same molecule?
A: Its plasma phenylalanine levels is “Increase”.

Q: What about the estrogen level (estrogen) of the same molecule?
A: Its estrogen level is “increases”.

Q: What about the “one carbon pool products (purines, pyrimidines, S-adenosylmethionine; AMP, ADP, ATP)” value [1] of the same molecule?
A: The value was “profoundly depleted; also recorded: Depletion”.

Q: And the motor incoordination [2, 3]?
A: Its motor incoordination is “sometimes occurs”.

Q: What about the lower extremity neuropathy ([2]; animals undergoing DHEA-mediated EGSS with or without supplementation) of the same molecule?
A: Its lower extremity neuropathy is “observed”.

Q: And the “susceptibility to infections, particularly ear and eye” value ([2]; dogs and cats, DHEA in amounts sufficient to induce EGSS)?
A: Its value is “have been noted”.

Q: And the fluid retention ([2]; dogs, DHEA in amounts sufficient to induce EGSS)?
A: Its fluid retention is “has been observed”.

Q: What about the “side effects of DHEA-mediated EGSS” value ([2]; doses required to induce EGSS in neutered animals) of the same molecule?
A: Its value is “capable of causing many serious side effects; also recorded: auto-inflammatory-like disorder”.

Q: And the vascular effects ([2]; during DHEA-mediated EGSS)?
A: Its vascular effects is “induction of vasoconstriction”.

Q: For `CC(C)=CCNc1ncnc2nc[nH]c12` [Isopentenyladenine], which “activity in restoring DNA synthesis relative to mevalonate” value (statin-treated cells) is on record?
A: The value was “approximately 100 fold”.

Q: With `N[C@@H](Cc1ccc(O)c(O)c1)C(=O)O` [L-DOPA] as the molecule, how does the emesis ([2]; dogs, alternative protocol with L-DOPA, pyridoxine, ascorbate, SAMe) read?
A: The emesis was “emesis in some dogs”.

Q: What does the source list for `O=[N+]([O-])[O-].[K+]` [potassium nitrate]?
A: NO level (NO): can replenish NO; symptoms associated with NO depletion [2, 3]: eliminating the symptoms
